Measurements: patent US10912780B2, “Heterocyclic compounds useful as anti-bacterial agents and method for production thereof” (Bugworks Research, Inc., priority 2017, dated 2021)
In brackets after ≈: the same amount, converted by molar mass.

Experiments:
[1] = test system: Enterococcus faecalis ATCC 29212; assay: Minimum Inhibitory Concentration (MIC) in LB media; type: cell-based; conditions: Enterococcus faecalis, ATCC29212, read-out: Minimum Inhibitory Concentration E. faecalis ATCC 29212
Description: (§1) The compounds of Formula (I) are of interest due to their potent antibacterial effects. The ability of the invention compounds disclosed herein to achieve an antibacterial effect may be evaluated with regard to their ability to inhibit the growth of bacterial species like Escherichia coli ATCC 25922, Staphylococcus aureus ATCC 29213, Klebsiella pneumoniae ATCC 13883, Acinetobacter baumannii ATCC 19606, Pseudomonas aeruginosa ATCC 27853, Enterococcus faecalis ATCC 29212 and Enterococcus faecalis ATCC 29212 using an assay based on the following Minimum Inhibitory Concentration (MIC) protocol:
(§2) The medium sterility is checked by incubating at 37° C. for a period of 48 h.
(§3) Bacterial cultures that are stored as glycerol stocks at −80° C. are sub cultured on LB agar plates to obtain isolated colonies. A single colony of each strain is cultured in LB broth. The cultures are incubated at 37 C, 200 rpm till they reach an optical density (OD at 600 nm) of 0.8 to 1. […] Test compounds are dissolved in dimethyl sulfoxide (DMSO) to a stock concentration of 4 mg/ml. A twofold dilution series of this DMSO stock is prepared in a 96 well V bottom microtitre plate from rows A to H. A 3 μL volume of these dilutions are transferred to a 96-well flat bottom microtitre assay plate. Controls to monitor the effects of DMSO and media sterility are included. Each well is inoculated with 150 μL of the above diluted culture. The plates are incubated at 37° C. overnight in a humidified incubator. The following morning, the plates are read using a Spectrophotometer at 600 nm wavelength. […] The antibacterial activity (MIC) determined against representative Gram positive (S. aureus, E. faecalis) and Gram negative (E.coli, -P. aeruginosa and A. baumannii) pathogen were reported Table 1.

[2] = test system: Escherichia coli ATCC 25922; assay: Minimum Inhibitory Concentration (MIC) in LB media; type: cell-based; conditions: Escherichia coli, ATCC25922, read-out: Minimum Inhibitory Concentration E. coli ATCC 25922
Description: as §1, §2, §3

[3] = test system: Klebsiella pneumoniae ATCC 13883; assay: Minimum Inhibitory Concentration (MIC) in LB media; type: cell-based; conditions: Klebsiella pneumoniae, ATCC13883, read-out: Minimum Inhibitory Concentration K. pneumoniae ATCC 13883
Description: as §1, §2, §3

[4] = test system: Pseudomonas aeruginosa ATCC 27853; assay: Minimum Inhibitory Concentration (MIC) in LB media; type: cell-based; conditions: Pseudomonas aeruginosa, ATCC27853, read-out: Minimum Inhibitory Concentration P. aeruginosa ATCC 27853
Description: as §1, §2, §3

[5] = test system: Staphylococcus aureus ATCC 29213; assay: Minimum Inhibitory Concentration (MIC) in LB media; type: cell-based; conditions: Staphylococcus aureus, ATCC29213, read-out: Minimum Inhibitory Concentration S. aureus ATCC 29213
Description: as §1, §2, §3

[6] = test system: Acinetobacter baumannii ATCC 19606; assay: Minimum Inhibitory Concentration (MIC) in LB media; type: cell-based; conditions: Acinetobacter baumannii, ATCC19606;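 also: twofold compound dilutions from DMSO stocks in LB broth microplates, overnight incubation at 37 °C, growth read by absorbance at 600 nm, with DMSO and sterility controls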
Description: Bacterial cultures that are stored as glycerol stocks at −80° C. are sub cultured on LB agar plates to obtain isolated colonies. A single colony of each strain is cultured in LB broth. […] Test compounds are dissolved in dimethyl sulfoxide (DMSO) to a stock concentration of 4 mg/ml. A twofold dilution series of this DMSO stock is prepared in a 96 well V bottom microtitre plate from rows A to H. A 3 μL volume of these dilutions are transferred to a 96-well flat bottom microtitre assay plate. Controls to monitor the effects of DMSO and media sterility are included. Each well is inoculated with 150 μL of the above diluted culture. The plates are incubated at 37° C. overnight in a humidified incubator. The following morning, the plates are read using a Spectrophotometer at 600 nm wavelength.

E. coli DNA gyrase = E. coli DNA gyrase (Escherichia coli, UniProt P0AES4+P0AES6); assay: biochemical; conditions: supercoiling assay
E. coli DNA gyrase, sequence (P0AES4 whole entry, one chain of several): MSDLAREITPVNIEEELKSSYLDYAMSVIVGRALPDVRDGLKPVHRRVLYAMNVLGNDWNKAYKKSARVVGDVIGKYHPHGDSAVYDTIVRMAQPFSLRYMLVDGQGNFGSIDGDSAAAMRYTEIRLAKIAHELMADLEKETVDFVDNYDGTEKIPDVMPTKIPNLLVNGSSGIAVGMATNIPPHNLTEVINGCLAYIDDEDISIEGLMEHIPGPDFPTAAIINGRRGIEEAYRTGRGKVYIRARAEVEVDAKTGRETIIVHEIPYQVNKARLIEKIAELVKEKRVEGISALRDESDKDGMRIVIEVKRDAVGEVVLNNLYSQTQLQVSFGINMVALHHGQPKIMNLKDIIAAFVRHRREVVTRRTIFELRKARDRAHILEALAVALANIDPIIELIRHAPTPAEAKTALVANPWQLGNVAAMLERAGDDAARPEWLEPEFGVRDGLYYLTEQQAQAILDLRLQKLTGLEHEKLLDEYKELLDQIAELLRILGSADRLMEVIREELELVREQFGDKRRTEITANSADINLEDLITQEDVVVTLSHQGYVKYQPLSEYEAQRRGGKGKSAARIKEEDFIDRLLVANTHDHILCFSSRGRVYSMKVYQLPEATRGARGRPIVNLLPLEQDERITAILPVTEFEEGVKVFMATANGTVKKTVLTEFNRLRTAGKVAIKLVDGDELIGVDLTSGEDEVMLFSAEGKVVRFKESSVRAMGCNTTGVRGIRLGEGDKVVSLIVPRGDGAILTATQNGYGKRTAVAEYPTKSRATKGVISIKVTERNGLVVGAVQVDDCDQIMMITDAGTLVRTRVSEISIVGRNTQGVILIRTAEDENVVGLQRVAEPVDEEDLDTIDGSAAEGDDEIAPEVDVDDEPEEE

E. coli topoisomerase IV = E. coli topoisomerase IV (Escherichia coli, UniProt P0AFI2+P20083); assay: biochemical; conditions: decatenation assay; read-out: E. coli Topo IV IC50
E. coli topoisomerase IV, sequence (P20083 whole entry): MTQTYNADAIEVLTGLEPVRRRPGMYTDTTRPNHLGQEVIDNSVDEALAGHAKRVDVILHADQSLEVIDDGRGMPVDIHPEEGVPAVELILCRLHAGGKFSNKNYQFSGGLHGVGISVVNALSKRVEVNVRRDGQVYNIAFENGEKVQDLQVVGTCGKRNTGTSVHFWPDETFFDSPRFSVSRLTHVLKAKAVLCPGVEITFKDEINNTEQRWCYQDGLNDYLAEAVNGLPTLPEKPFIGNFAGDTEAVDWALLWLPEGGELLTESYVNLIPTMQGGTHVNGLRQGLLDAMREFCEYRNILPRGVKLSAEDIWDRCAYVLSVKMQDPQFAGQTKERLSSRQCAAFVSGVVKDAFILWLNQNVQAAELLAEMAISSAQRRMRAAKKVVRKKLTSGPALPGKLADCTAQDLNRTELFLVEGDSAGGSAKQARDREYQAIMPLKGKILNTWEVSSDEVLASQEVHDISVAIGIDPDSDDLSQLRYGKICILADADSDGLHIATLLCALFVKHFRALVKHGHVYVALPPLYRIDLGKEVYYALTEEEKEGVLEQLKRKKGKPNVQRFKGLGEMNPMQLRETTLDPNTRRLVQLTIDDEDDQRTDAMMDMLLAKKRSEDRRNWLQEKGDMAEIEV
E. coli topoisomerase IV, sequence (P0AFI2 whole entry): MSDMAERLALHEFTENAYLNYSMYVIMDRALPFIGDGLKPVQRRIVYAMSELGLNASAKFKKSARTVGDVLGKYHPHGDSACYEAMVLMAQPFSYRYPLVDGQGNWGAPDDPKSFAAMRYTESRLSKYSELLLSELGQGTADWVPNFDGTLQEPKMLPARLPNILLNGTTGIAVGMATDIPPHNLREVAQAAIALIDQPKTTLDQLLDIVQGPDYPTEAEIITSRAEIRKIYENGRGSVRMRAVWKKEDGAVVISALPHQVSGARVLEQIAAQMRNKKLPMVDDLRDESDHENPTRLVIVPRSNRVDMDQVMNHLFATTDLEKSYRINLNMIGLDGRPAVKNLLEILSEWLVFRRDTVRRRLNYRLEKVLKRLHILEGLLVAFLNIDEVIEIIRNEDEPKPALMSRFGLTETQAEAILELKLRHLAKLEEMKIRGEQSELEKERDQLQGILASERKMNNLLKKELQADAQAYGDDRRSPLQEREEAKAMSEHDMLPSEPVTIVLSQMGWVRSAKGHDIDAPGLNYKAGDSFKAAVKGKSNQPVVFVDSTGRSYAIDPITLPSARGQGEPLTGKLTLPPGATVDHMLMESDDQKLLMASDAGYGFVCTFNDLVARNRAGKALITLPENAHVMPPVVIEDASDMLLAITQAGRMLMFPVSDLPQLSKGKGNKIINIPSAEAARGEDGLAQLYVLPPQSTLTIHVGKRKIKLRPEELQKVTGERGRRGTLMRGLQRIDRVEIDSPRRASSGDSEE

[7] = target: T1, human ether a go-go related gene (hERG) K+ channel (Homo sapiens, UniProt Q12809); assay: hERG inhibition assay, QPatch HTX automated electrophysiology; type: cell-based; conditions: CHO cell line stably expressing hERG, whole-cell patch clamp, maximum test concentration 300 μM
T1 construct: Chinese Hamster Ovary cell line stably expressing the full-length hERG potassium channel; expressed in transfected cells
T1 sequence (Q12809 whole entry): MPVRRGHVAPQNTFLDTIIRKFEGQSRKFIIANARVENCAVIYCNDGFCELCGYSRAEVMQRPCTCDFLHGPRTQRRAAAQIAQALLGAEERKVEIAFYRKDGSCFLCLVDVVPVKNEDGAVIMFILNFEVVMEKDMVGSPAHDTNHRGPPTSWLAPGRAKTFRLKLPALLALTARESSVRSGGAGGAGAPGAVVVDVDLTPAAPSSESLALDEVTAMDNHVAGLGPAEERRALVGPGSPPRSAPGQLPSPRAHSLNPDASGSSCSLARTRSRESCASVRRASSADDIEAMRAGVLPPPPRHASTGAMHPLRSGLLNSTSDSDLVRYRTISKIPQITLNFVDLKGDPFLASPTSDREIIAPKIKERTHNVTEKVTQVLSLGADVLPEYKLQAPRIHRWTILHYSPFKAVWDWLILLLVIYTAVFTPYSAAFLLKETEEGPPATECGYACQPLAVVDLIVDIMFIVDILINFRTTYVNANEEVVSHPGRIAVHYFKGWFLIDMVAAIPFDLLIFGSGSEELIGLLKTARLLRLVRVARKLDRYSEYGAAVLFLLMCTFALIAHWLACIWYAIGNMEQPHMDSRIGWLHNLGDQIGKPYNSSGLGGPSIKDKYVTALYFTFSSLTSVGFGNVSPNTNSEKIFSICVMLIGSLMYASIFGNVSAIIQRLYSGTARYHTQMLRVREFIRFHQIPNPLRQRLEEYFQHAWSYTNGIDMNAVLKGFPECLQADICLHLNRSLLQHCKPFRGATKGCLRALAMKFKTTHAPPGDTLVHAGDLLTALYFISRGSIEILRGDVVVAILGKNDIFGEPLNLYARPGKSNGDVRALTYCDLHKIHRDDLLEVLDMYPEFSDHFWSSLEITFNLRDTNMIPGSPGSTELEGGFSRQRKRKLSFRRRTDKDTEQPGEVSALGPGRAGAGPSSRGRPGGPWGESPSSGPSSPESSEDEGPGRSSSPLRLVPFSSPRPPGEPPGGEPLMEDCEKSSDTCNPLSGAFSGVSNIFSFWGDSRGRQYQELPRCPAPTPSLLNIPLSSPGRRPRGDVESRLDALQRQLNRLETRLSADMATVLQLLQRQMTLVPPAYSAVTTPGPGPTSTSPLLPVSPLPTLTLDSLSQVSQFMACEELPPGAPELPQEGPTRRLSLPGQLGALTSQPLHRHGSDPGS
Description: The compounds were tested for inhibition of the human ether a go-go related gene (hERG) K+ channel using QPatch HTX automated electrophysiology.
Compounds were solubilised to 100 mM in DMSO before dilution in HBPS to 300 μM.
Electrophysiological recordings were made from a Chinese Hamster Ovary cell line stably expressing the full-length hERG potassium channel. Single cell ionic currents were measured in whole-cell patch clamp configuration at room temperature (21-23° C.) using the QPatch HTX platform (Sophion). Intracellular solution contained (mM): 120 KF, 20 KCl, 10 EGTA, 10 HEPES and was buffered to pH 7.3. […] Cells were clamped at a holding potential of −80 mV. […] This sweep was repeated 10 times at 10 s intervals. hERG currents were measured from the tail step and referenced to the holding current. Compounds were then incubated for 2 minutes prior to a second measurement of ion channel current using an identical pulse train.

| SMILES | MIC [1] | MIC [2] | MIC [3] | MIC [4] | MIC [5] | MIC [6] | IC50 (E. coli DNA gyrase) | IC50 (E. coli topoisomerase IV) | IC50 [7] |
| --- | --- | --- | --- | --- | --- | --- | --- | --- | --- |
| Cn1c(=O)ccc2ccc(F)c(C[C@H](O)CNC[C@H]3CN(c4ccc5c(n4)NC(=O)CO5)C(=O)O3)c21 (single isomer, unassigned) [Example 18] | 0.5 µg/mL (≈ 1.01 µM) | 0.125 µg/mL (≈ 0.251 µM) | 0.125 µg/mL (≈ 0.251 µM) | 1 µg/mL (≈ 2.01 µM) | 0.125 µg/mL (≈ 0.251 µM) | 0.5 µg/mL (≈ 1.01 µM) | 0.013 µM | 0.024 µM | 237 µM |
| Cn1c(=O)ccc2ccc(F)c(CCNCC[C@H]3CN(c4cnc5c(n4)NC(=O)CO5)C(=O)O3)c21 (single isomer, unassigned) [Example 24] | 0.125 µg/mL (≈ 0.259 µM) | 0.06 µg/mL (≈ 0.124 µM) | 0.125 µg/mL (≈ 0.259 µM) | 0.25 µg/mL (≈ 0.518 µM) | 0.125 µg/mL (≈ 0.259 µM) | 0.5 µg/mL (≈ 1.04 µM) | 0.025 µM | 0.123 µM | > 300 µM |
| Cn1c(=O)ccc2ccc(F)c(CCNCC[C@@H]3CN(c4cnc5c(n4)NC(=O)CO5)C(=O)O3)c21 (single isomer, unassigned) [Example 25] | 0.5 µg/mL (≈ 1.04 µM) | 0.06 µg/mL (≈ 0.124 µM) | 0.25 µg/mL (≈ 0.518 µM) | 0.25 µg/mL (≈ 0.518 µM) | 0.06 µg/mL (≈ 0.124 µM) | 0.5 µg/mL (≈ 1.04 µM) | 0.017 µM | 0.021 µM | 101 µM |
| CN1C(=O)CCc2ccc(F)c(CCNC[C@@H]3CN(c4ccc5c(n4)NC(=O)CO5)C(=O)O3)c21 [Example 3, (R)-6-(5-(((2-(7-fluoro-1-methyl-2-oxo-1,2,3,4-tetrahydroquinolin-8-yl)ethyl)amino)methyl)-2-oxooxazolidin-3-yl)-2H-pyrido[3,2-b][1,4]oxazin-3(4H)-one] | 0.25 µg/mL (≈ 0.533 µM) | 0.5 µg/mL (≈ 1.07 µM) | 2 µg/mL (≈ 4.26 µM) | 16 µg/mL (≈ 34.1 µM) | 0.5 µg/mL (≈ 1.07 µM) | 1 µg/mL (≈ 2.13 µM) |  |  | 12 µM |
| Cn1c(=O)cnc2ccc(F)c(CCNC[C@@H]3CN(c4ccc5c(n4)NC(=O)CO5)C(=O)O3)c21 [Example 5, (R)-6-(5-(((2-(6-fluoro-4-methyl-3-oxo-3,4-dihydroquinoxalin-5-yl)ethyl)amino)methyl)-2-oxooxazolidin-3-yl)-2H-pyrido[3,2-b][1,4]oxazin-3(4H)-one] | 0.25 µg/mL (≈ 0.534 µM) | 0.06 µg/mL (≈ 0.128 µM) | 0.125 µg/mL (≈ 0.267 µM) | 1 µg/mL (≈ 2.13 µM) | 0.015 µg/mL (≈ 0.032 µM) | 0.03 µg/mL (≈ 0.064 µM) |  |  | 14 µM |
| Cn1c(=O)ccc2ccc(F)c(CCNC[C@H]3CN(c4ccc5c(n4)NC(=O)CO5)C(=O)O3)c21 [Example 8, (S)-6-(5-(((2-(7-fluoro-1-methyl-2-oxo-1,2-dihydroquinolin-8-yl)ethyl)amino)methyl)-2-oxooxazolidin-3-yl)-2H-pyrido[3,2-b][1,4]oxazin-3(4H)-one] | 0.06 µg/mL (≈ 0.128 µM) | 0.03 µg/mL (≈ 0.0642 µM) | 0.03 µg/mL (≈ 0.0642 µM) | 0.25 µg/mL (≈ 0.535 µM) | ≤ 0.015 µg/mL | ≤ 0.015 µg/mL |  |  | 17 µM |
| O=C1COc2ccc(N3C[C@H](CNCCc4c(F)ccc5ncc(=O)n(CCO)c45)OC3=O)nc2N1 [Example 9, (S)-6-(5-(((2-(6-fluoro-4-(2-hydroxyethyl)-3-oxo-3,4-dihydroquinoxalin-5-yl)ethyl)amino)methyl)-2-oxooxazolidin-3-yl)-2H-pyrido[3,2-b][1,4]oxazin-3(4H)-one] | 0.125 µg/mL (≈ 0.251 µM) | 0.06 µg/mL (≈ 0.12 µM) | 0.13 µg/mL (≈ 0.261 µM) | 1 µg/mL (≈ 2.01 µM) | 0.03 µg/mL (≈ 0.0602 µM) | 0.06 µg/mL (≈ 0.12 µM) | 0.0032 µM | 0.175 µM | 68.7 µM |
| O=C1COc2ccc(N3C[C@H](CNCCc4c(F)ccc5ccc(=O)n(CCO)c45)OC3=O)nc2N1 [Example 10, (S)-6-(5-(((2-(7-fluoro-1-(2-hydroxyethyl)-2-oxo-1,2-dihydroquinolin-8-yl)ethyl)amino)methyl)-2-oxooxazolidin-3-yl)-2H-pyrido[3,2-b][1,4]oxazin-3(4H)-one] | 0.06 µg/mL (≈ 0.121 µM) | 0.03 µg/mL (≈ 0.0603 µM) | 0.06 µg/mL (≈ 0.121 µM) | 0.5 µg/mL (≈ 1.01 µM) | 0.015 µg/mL (≈ 0.0302 µM) | 0.125 µg/mL (≈ 0.251 µM) | 0.0059 µM | 0.03 µM | 71 µM |
| Cn1c(=O)cc(CN)c2ccc(F)c(CCNC[C@H]3CN(c4ccc5c(n4)NC(=O)CO5)C(=O)O3)c21 [Example 13, (S)-6-(5-(((2-(4-(aminomethyl)-7-fluoro-1-methyl-2-oxo-1,2-dihydroquinolin-8-yl)ethyl)amino)methyl)-2-oxooxazolidin-3-yl)-2H-pyrido[3,2-b][1,4]oxazin-3(4H)-one] | 0.5 µg/mL (≈ 1.01 µM) | 0.125 µg/mL (≈ 0.252 µM) | 0.25 µg/mL (≈ 0.504 µM) | 0.5 µg/mL (≈ 1.01 µM) | 0.25 µg/mL (≈ 0.504 µM) | 1 µg/mL (≈ 2.01 µM) | 0.02 µM | 0.032 µM | > 300 µM |
| Cn1c(=O)ccc2ccc(F)c(CCNC[C@@H]3CN(c4cnc5c(n4)NC(=O)CO5)C(=O)O3)c21 [Example 14, (R)-6-(5-(((2-(7-fluoro-1-methyl-2-oxo-1,2-dihydroquinolin-8-yl)ethyl)amino)methyl)-2-oxooxazolidin-3-yl)-2H-pyrazino[2,3-b][1,4]oxazin-3(4H)-one] | 0.06 µg/mL (≈ 0.128 µM) | 0.06 µg/mL (≈ 0.128 µM) | 0.06 µg/mL (≈ 0.128 µM) | 0.5 µg/mL (≈ 1.07 µM) | ≤ 0.015 µg/mL | 0.25 µg/mL (≈ 0.534 µM) | 0.013 µM | 0.052 µM | 41 µM |
| Cn1c(=O)ccc2ccc(F)c(CCNC[C@H]3CN(c4ncc5c(n4)NC(=O)CO5)C(=O)O3)c21 [Example 16, (S)-2-(5-(((2-(7-fluoro-1-methyl-2-oxo-1,2-dihydroquinolin-8-yl)ethyl)amino)methyl)-2-oxooxazolidin-3-yl)-6H-pyrimido[5,4-b][1,4]oxazin-7(8H)-one] | 0.25 µg/mL (≈ 0.534 µM) | 0.06 µg/mL (≈ 0.128 µM) | 0.25 µg/mL (≈ 0.534 µM) | 1 µg/mL (≈ 2.13 µM) | 0.06 µg/mL (≈ 0.128 µM) | 0.25 µg/mL (≈ 0.534 µM) | 0.041 µM | 0.112 µM | 204 µM |
| O=C1COc2ncc(N3C[C@H](CNCCc4c(F)ccc5ccc(=O)n(CCO)c45)OC3=O)nc2N1 [Example 20, (S)-6-(5-(((2-(7-fluoro-1-(2-hydroxyethyl)-2-oxo-1,2-dihydroquinolin-8-yl)ethyl)amino)methyl)-2-oxooxazolidin-3-yl)-2H-pyrazino[2,3-b][1,4]oxazin-3(4H)-one] | 0.125 µg/mL (≈ 0.251 µM) | 0.125 µg/mL (≈ 0.251 µM) | 0.5 µg/mL (≈ 1 µM) | 0.5 µg/mL (≈ 1 µM) | 0.03 µg/mL (≈ 0.0602 µM) | 2 µg/mL (≈ 4.01 µM) | 0.0106 µM | 0.09 µM | > 300 µM |
| Cn1c(=O)ccc2ccc(F)c(CCCNC[C@H]3CN(c4cnc5c(n4)NC(=O)CO5)C(=O)O3)c21 [Example 22, (S)-6-(5-(((3-(7-fluoro-1-methyl-2-oxo-1,2-dihydroquinolin-8-yl)propyl)amino)methyl)-2-oxooxazolidin-3-yl)-2H-pyrazino[2,3-b][1,4]oxazin-3(4H)-one] | 0.06 µg/mL (≈ 0.124 µM) | 0.03 µg/mL (≈ 0.0622 µM) | 0.06 µg/mL (≈ 0.124 µM) | 0.25 µg/mL (≈ 0.518 µM) | ≤ 0.015 µg/mL | 0.015 µg/mL (≈ 0.0311 µM) | 0.0032 µM | 0.019 µM | 128 µM |
| Cn1c(=O)ccc2ccc(F)c(CCCNC[C@@H]3CN(c4cnc5c(n4)NC(=O)CO5)C(=O)O3)c21 [Example 23, (R)-6-(5-(((3-(7-fluoro-1-methyl-2-oxo-1,2-dihydroquinolin-8-yl)propyl)amino)methyl)-2-oxooxazolidin-3-yl)-2H-pyrazino[2,3-b][1,4]oxazin-3(4H)-one] | 0.06 µg/mL (≈ 0.124 µM) | 0.03 µg/mL (≈ 0.0622 µM) | 0.03 µg/mL (≈ 0.0622 µM) | 0.25 µg/mL (≈ 0.518 µM) | 0.015 µg/mL (≈ 0.0311 µM) | 0.015 µg/mL (≈ 0.0311 µM) | 0.0049 µM | 0.037 µM | 35 µM |
